Read-outs that look alike come from different tables or passages of the source.
Key:
[1] = tested on: adult patients with TRD; settings: for depression rating based on mean PHQ-9 depression scores: "severe" at baseline, HBr after 2 weeks; for side effect: anxiety / side effect: gastrointestinal upset / side effect: insomnia: in vivo
Source text: In the regular course of Applicants' general outpatient psychiatry practice, Applicants see many patients who suffer from Major Depressive Disorder (MDD) and may not have responded to two or more oral antidepressant medications. Applicants routinely administer the brief and commonly used Patient Health Questionnaire-9 (PHQ-9) scale before starting a new treatment, two weeks after starting treatment to measure initial response, and periodically thereafter.
Once-daily, XL bupropion HCl received FDA approval for the treatment of MDD in 2003 and for Seasonal Affective Disorder (SAD) in 2006.
The following study protocol was approved by the WCG-IRB institutional ethics committee and conducted in accordance with principles set forth in the Helsinki Declaration. […] The PHQ-9 is a reliable and valid clinical and research tool that measures functionality and depression severity, whereby scores of 5, 10, 15, and 20 correspond to mild, moderate, moderately severe, and severe depression and a 5-point change is considered clinically meaningful. Statistical analysis was performed using a within-subject, 2-tailed t-test with a significance level of p<0.05.

[2] = APLENZIN 348 mg once-daily, 10-day dosing; cited from earlier work
[3] = tested on: patients having Major Depressive Disorder who also suffer from Treatment Resistant Depression; assay: Example 3: study similar to Example 2 with two arms of 25 patients; type: in vivo, human; settings: 25 patients per arm
Experimental: A similar study to that of Example 2 is also conducted, except that the 50 patients are broken into two arms—one arm of 25 patients taking bupropion HCl XL and the other arm of 25 patients taking bupropion HBr XL.

[4] = tested on: patients having Major Depressive Disorder who also suffer from Treatment Resistant Depression; assay: Example 2: phase III double-blind active control Treatment Resistant Major Depressive Disorder study (MADRS), sequential HCl then HBr; type: in vivo, human; settings: N=50
Experimental: A phase III double-blind study is conducted on a subset of patients having Major Depressive Disorder who also suffer from Treatment Resistant Depression. Exclusion criteria for this study are any patients suffering from seizures, known hypersensitivity to bupropion, eating disorders, schizophrenia or bipolar disorder. Inclusion criteria for this study are adult patients ages 18 through 64 who have taken two oral antidepressants of adequate dose and duration in the current episode of Major Depressive Disorder. The study includes a total of fifty patients (N=50). Initially, all patients are given a two-week washout from a previous oral antidepressant or are not currently taking an oral antidepressant. The patients are administered once daily bupropion HCl XL 150 mg, which is flexibly dosed to 300 mg by day 4 and 450 mg by day 11, to the extent required for treatment response and/or as tolerated. The treatment is continued for a total of six weeks. After six weeks, there is a five-day bupropion HCl XL washout. Next, the patients are administered once daily bupropion HBr XL 174 mg, which is flexibly dosed to 348 mg by day 4 and 522 mg by day 11, to the extent required for treatment response and/or as tolerated. This part of the study is continued for a total of six weeks. Measures are assessed based on weekly changes on the Montgomery Asberg Depression Rating Scale (MADRS) from baseline on bupropion HCl compared to bupropion HBr. Also, side effects leading to discontinuation on bupropion HCl compared to bupropion HBr are considered. The primary endpoint of the study is significant change in MADRS by week 6 on bupropion HBr compared to bupropion HCl. A secondary endpoint is statistically significant change in MADRS by week 2 on bupropion HBr compared to bupropion HCl.

Compound	depression rating based on mean PHQ-9 depression scores ([1]; 30 adult TRD patients)	mean PHQ-9 score on XL bupropion HCl ([1]; 30 adult TRD patients, mean dose 300 mg/day (range 150-450 mg/day), mean duration 88.8 weeks, PHQ-9 range 0-27, baseline 20.9±4.3)	side effect: anxiety ([1]; both, human) [patients]	side effect: gastrointestinal upset ([1]; both, human) [patients]	side effect: insomnia ([1]; both, human) [patients]	peak plasma concentration and area under the curve vs bupropion HCl extended-release 300 mg (bioequivalence) [2]	results of two-arm study compared to bupropion HCl XL [3]	mean PHQ-9 score on XL bupropion HBr ([1]; 30 adult TRD patients, after 2 weeks on mean dose 348 mg/day (range 174-522 mg/day) after direct switch from XL bupropion HCl, t=-8.63, p<0.00001 vs HCl)	change in PHQ-9 questions (1), (3), (4), (5) and (7) on XL bupropion HBr compared to XL bupropion HCl ([1]; all patients in the study of Example 1, each question rated 0 to 3)	side effect: anxiety [1]	side effect: gastrointestinal upset [1]	patient preference over the combination of bupropion HCl plus dextromethorphan ([1]; subgroup of five patients who had previously failed the combination, due to improved antidepressant efficacy)	side effects leading to discontinuation compared to bupropion HCl [4]	efficacy in TRD (MADRS change) compared to bupropion HCl ([4]; 174-522 mg once daily, six weeks)	speed of effect compared to bupropion HCl ([4]; MADRS by week 2)
CC(NC(C)(C)C)C(=O)c1cccc(Cl)c1.Cl (racemic) [XL bupropion HCl, (±)-1-(3-chlorophenyl)-2-[(1,1-dimethylethyl)amino]-1-propanone hydrochloride]	moderately severe (Scores of 15-19 indicate moderately severe depression)	15.3±5.3	19	2	21										
Br.CC(NC(C)(C)C)C(=O)c1cccc(Cl)c1 (centres unmarked) [XL bupropion HBr, bupropion hydrobromide]	mild (Scores of 5-9 indicate mild depression)				3	equivalent	same as in Example 2	6.4±5.0	improving by at least one point	resolved	resolved	All five patients in this subgroup preferred once-daily XL bupropion HBr	fewer side effects leading to discontinuation	more effective	works faster

— US12303473B1 (priority 2023, dated 2025)
